Assay results published in article PMC5498548.
Values after ≈ are worked out from the molar mass of the structure shown. Values joined by “and” are separate entries in the source; they are usually repeats but may differ in a detail not shown here. Identical values can stand only once. Counter-ions that a name gives are not always drawn. Like-named read-outs stand apart in the source and are kept apart here.

Key:
[1] = molecular target: T1, IdeR (Mycobacterium tuberculosis, UniProt P9WMH1); assay: biochemical; conditions: EMSA
T1 sequence (P9WMH1 whole entry, looked up): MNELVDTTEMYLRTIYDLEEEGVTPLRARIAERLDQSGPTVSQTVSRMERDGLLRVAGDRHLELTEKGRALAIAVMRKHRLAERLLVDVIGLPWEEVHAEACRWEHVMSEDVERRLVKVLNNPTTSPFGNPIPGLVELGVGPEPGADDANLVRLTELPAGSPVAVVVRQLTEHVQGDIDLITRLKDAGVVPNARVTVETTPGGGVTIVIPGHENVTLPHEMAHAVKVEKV

[2] = test system: M. tuberculosis; assay: Resazurin microtiter assay (REMA) whole cell MIC90 in broth culture; type: cell-based, Mycobacterium tuberculosis; conditions: Mycobacterium tuberculosis, MB7H9 medium, Mean ± S.E., three experiments, read-out: MIC90 of compounds against M. tuberculosis
[3] = test system: THP-1 (human monocytic macrophage cell line); assay: Cytotoxicity by REMA in THP-1; type: cell-based
Protocol: (§1) The cytotoxicity of the compounds was determined by employing REMA using various mammalian cell lines such as THP-1 (human monocytic macrophage cell line), HEK (Human Embryonic Kidney cell line), MDCK (Madine darby canine kidney cell line) and HepG2 (Human hepatocellular carcinoma cell line). 1 × 10^4 cells/well were employed in a sterilized 96-well plate containing serial dilutions of compounds ranging from 1 µg/ml to 200 µg/ml concentration, in their respective media (RPMI for THP-1, DMEM for HEK and HepG2 and MEM for MDCK) with 10% fetal bovine serum and Antibiotic-Antimycotic mix (Invitrogen Corporation, Carlsbad, California, USA). IC50 is defined as the concentration of the compound that causes 50% reduction in the fluorescence intensity indicating 50% viable cells. IC50 values were determined from the results of at least two independent tests and Mean ± S.E.M was calculated from the inhibition curve using GraphPad Prism 5.

[4] = test system: HEK (Human Embryonic Kidney cell line); assay: Cytotoxicity by REMA in HEK; type: cell-based; conditions: 1-200 µg/ml
Protocol: as §1

[5] = test system: MDCK (Madine darby canine kidney cell line); assay: Cytotoxicity by REMA in MDCK; type: cell-based; conditions: 1-200 µg/ml
Protocol: as §1

[6] = test system: HepG2 (Human hepatocellular carcinoma cell line); assay: Cytotoxicity by REMA in HepG2; type: cell-based
Protocol: as §1

[7] = molecular target: T1, IdeR; assay: EMSA competition experiments with increasing labeled DNA; type: biochemical; conditions: DNA 0.8 pmoles to 12.8 pmoles
[8] = 0.35 µg IdeR, 0.8 picomoles labeled DNA, 200 µM NiSO4, inhibitor 0.4-100 µg/ml
[9] = same values given in µM, read-out: IC50
[10] = 0.35 µg IdeR, 0.8 picomoles labeled DNA, 200 µM NiSO4, inhibitor 0.4-100 µg/ml, read-out: IC50 (µg/ml) (converted)

O=S(=O)(Nc1c(Cl)c(Cl)c(Cl)c(Cl)c1NS(=O)(=O)c1ccccc1)c1ccccc1 [IS-70, N,N-(3,4,5,6-tetrachlorobenzene-1,2-diyl) dibenzenesulfonamide]
IC50 [1, 8]: 46.44 ± 1.486 µg/mL
IC50 [1, 9]: 88.3 µM

O=C1N[C@H]2CCCC[C@@H]2C(=O)N1OS(=O)(=O)c1ccccc1 [Compound I-91, (4As,8As)-3-[(phenylsulfonyl)oxy]hexahydroquinazoline-2,4(1H,3H)-dione]
IC50 [1, 10]: 231 µM
IC50 [1, 9]: 231 µM

O=S(=O)(O)c1ccc2c(N=Nc3cccc4ccccc34)c(O)c(S(=O)(=O)O)cc2c1 [IS-45, 2,7-naphthalenedisulfonic acid, 3-hydroxy-4-(1-napthalenylazo)]
IC50 [1, 8]: 20.19 ± 1.74 µg/mL
IC50 [1, 9]: 40 µM

COc1ccc(-c2nc3ccccc3s2)cc1S(=O)(=O)O [IS-4, 5-(1,3-benzothiazol-2-yl)-2-methoxybenzenesulfonic acid]
IC50 [1, 10]: 45.1 µM
IC50 [1, 9]: 42.1 µM
MIC90 [2]: 100 µg/mL (≈ 311 µM)
Inhibition in THP1 (IC50 in µg/ml) ([3]; 1-200 µg/ml): slight toxicity
IC50 ([3]; Homo sapiens, THP-1, 1-200 µg/ml, read-out: Inhibition in THP1 (IC50 in µg/ml)): 166 ± 3.72 µg/mL (≈ 516 µM)
Inhibition in HEK (IC50 in µg/ml) [4]: slight toxicity
IC50 ([4]; Homo sapiens, read-out: Inhibition in HEK (IC50 in µg/ml)): 164.7 ± 1.24 µg/mL (≈ 512 µM)
Inhibition in MDCK (IC50 in µg/ml) [5]: slight toxicity
IC50 ([5]; Canis lupus familiaris, MDCK, read-out: Inhibition in MDCK (IC50 in µg/ml)): 173 ± 2.3 µg/mL (≈ 538 µM)
Inhibition in HepG2 (IC50 in µg/ml) ([6]; 1-200 µg/ml): slight toxicity
IC50 ([6]; Homo sapiens, HepG2, 1-200 µg/ml, read-out: Inhibition in HepG2 (IC50 in µg/ml)): 176.3 ± 1.6 µg/mL (≈ 549 µM)

CC(NCc1c(O)ccc2ccc(=O)oc12)C(=O)O (stereo not shown) [Compound I-39]
IC50 [1, 10]: 53.9 µM
IC50 [1, 9]: 54 µM
mode of inhibition in competition with DNA [7]: competing with DNA

Oc1ccccc1C=Nc1ccccc1N=Cc1ccccc1O [IS-47]
IC50 [1, 8]: 84 ± 1.2 µg/mL
IC50 [1, 9]: 266 µM

Nc1ccc(N=Nc2ccc(N=Nc3ccc(N=Nc4cc(S(=O)(=O)O)c5ccccc5c4O)c4ccc(S(=O)(=O)O)cc34)c3ccc(S(=O)(=O)O)cc23)cc1 [IS-8, 1-Naphthalenesulfonic acid, 3-[[4-[[4-[(4-aminophenyl)azo]-6-sulfo-1-naphthalenyl]azo]-6-sulfo-1-naphthalenyl]azo]-4-hydroxy-,trisodium salt]
IC50 [1, 10]: 0.813 µM and 0.822 µM
IC50 [1, 9]: 0.75 µM

NC(Cc1c[nH]c2cc(OCc3ccccc3)ccc12)C(=O)O (stereo not shown) [Compound I-92, 2-amino-3-[6-(benzyloxy)-1H-indol-3-yl]propanoic acid]
IC50 [1, 10]: 189 µM
IC50 [1, 9]: 189 µM

Nc1ccc(-c2nc3ccccc3s2)cc1S(=O)(=O)O [IS-32, 2-Amino-5-(1,3-benzothiazol-2-yl) benzenesulfonic acid]
IC50 [1, 10]: 68.3 µM
IC50 [1, 9]: 64.8 µM

Oc1ccc(/C=N\c2ccccc2/N=C\c2ccc(O)c(O)c2)cc1O [Compound I-103, 4,4`-{benzene-1,2-diylbis[nitrilo(Z)methylylidene]}dibenzene-1,2-diol]
IC50 [1, 10]: 95.6 µM
IC50 [1, 9]: 95.6 µM

5[phenylimino)methyl]benzene-1,2,3 triol [IS-51]
IC50 [1, 8]: 16.5 µg/mL and 16.52 ± 1.72 µg/mL
IC50 [1, 9]: 72 µM

O=S(=O)(O)c1cccc2c(O)c(N=Nc3cccc4ccccc34)ccc12 [IS-55, 1-napthalenesulfonic acid,5-hydroxy-6-(1-naphthalenylazo)]
IC50 [1, 8]: 6.6 ± 1.95 µg/mL
IC50 [1, 9]: 16.4 µM

Cc1c2ccccc2nc(C[S+]([O-])c2ccccc2)[n+]1[O-] (stereo not shown) [Compound I-93, 4-methyl-2-[(phenylsulfinyl)methyl]quinazoline 3-oxide]
IC50 [1, 10]: 181 µM
IC50 [1, 9]: 182 µM

Cc1cc(=O)oc2c(CNC(C(=O)O)C(C)O)c(O)ccc12 (stereo not shown) [IS-40, 3-hydroxy-2-{[(7-hydroxy-4-methyl-2-oxo-2H-chromen-8-yl)methyl]amino}butanoic acid]
IC50 [1, 10]: 269 µM
IC50 [1, 9]: 275 µM

O=S(=O)(O)c1ccc(O)c(/N=N/c2ccc(O)cc2O)c1 [IS-12, Benzene sulfonic acid, 3-[(2,4-dihydroxyphenyl)azo]-4-hydroxy]
IC50 [1, 10]: 15.1 µM
IC50 [1, 9]: 15.2 µM
